# Assays:
# [1] = tested on: CMPK2 expression in BMDMs; experiment: CMPK2 protein and mRNA expression in BMDMs; format: cell-based, mouse
# Experimental: Cells were lysed in NP-40 buffer containing a protease inhibitor cocktail (Roche, 11836153001) and a phosphatase inhibitor cocktail (Sigma-Aldrich, P5726). Protein concentrations were quantified using a BCA Protein Assay Kit (Beyotime, 5000T P0011). Equal amounts of protein were separated by SDS-PAGE and transferred onto nitrocellulose membranes. The membranes were then incubated with antibodies against CMPK2, NLRP3, ASC, pro-caspase-1, pro-IL-1β, GAPDH, caspase-1 and IL-1β, followed by incubation with the appropriate secondary HRP-conjugated antibodies and development with ECL.
# [2] = tested on: siCmpk2/dsCmpk2-transduced BMDMs; experiment: Inflammasome readouts in siCmpk2- or dsCmpk2-transduced BMDMs; format: cell-based, mouse
# Experimental: BMDMs were plated in 6-well plates at a density of 1.5×10^6 cells per well and then transfected with 150 nM siRNA using Lipofectamine RNAiMAX according to the manufacturer’s guidelines (Invitrogen). siRNA sequences were chemically synthesized by GenePharma, and the negative control siRNA was also from GenePharma. The siRNA sequences were as follows: sicmpk2 5’-[…]-3’.
# Full-length human CMPK2 was cloned and inserted into a pcDNA3.1(+) vector (Invitrogen) for expression in mouse BMDMs. An HA tag was placed after the C-terminal of CMPK2. Mouse BMDMs were transfected using Fugene HD Transfection Reagent (Promega) with the CMPK2 plasmid. BMDMs were plated in 6-well plates at a density of 1.5×10^6 cells per well and then transfected with 6 μg dsDNA using FuGENE according to the manufacturer’s guidelines (Promega).
# [3] = tested on: cellular CMPK2 activity in BMDMs; experiment: Effect on cellular CMPK2 activity (ADP-Glo on cell lysates); format: cell-based, mouse
# Experimental: Primary BMDMs were generated by culturing mouse bone marrow cells in the presence of 20 ng/ml M-CSF conditioned medium for 7 days. BMDMs were seeded in 6-well plates overnight in FBS-free DMEM. After adhering to the wall, different concentrations of DP were added and treated for 12 hours. On day 2, after priming with ultrapure LPS (200 ng/ml) for 4 h, BMDMs (1 × 10^6 cells/ml) were further stimulated with ATP (4 mM) or Nigericin (10 μM) for 45 min. Cell lysates were collected for ADP-Glo™ Kinase Assay (Promega, Madison, WI, USA).
# [4] = target: CMPK2^Lys320 protein; experiment: MST binding to CMPK2 Lys320 mutant; set-up: species or system human; conditions: Lys320 mutated
# Experimental: (§1) Human CMPK2 and K265, K282 and K320 mutated CMPK2 cDNA were cloned and inserted into the pTT5 vector, and the constructed plasmid was amplified by the DH5α strain. The C‐terminus of the cDNA was fused with a 6× His tag, and the N‐terminus was truncated by 22 amino acids (Figure 1B–F and Supporting Information Figure S5A,B). When the free‐style 293‐F cells reached the proper density, approximately 1 mg of expression plasmid was premixed with 3 mg polyethylenimine in UltraFectin medium and incubated prior to transfection. This mixture was then added to the appropriate amount of fresh cell culture medium, incubated for 30 min and collected after 48 h.
# (§2) The MST assay is an emerging technique used to quantitatively elucidate binding. The binding parameter between CMPK2 and DP was measured using MST on a Monolith NT.115 system (Germany). CMPK2 was fluorescently labeled with the Monolith NT Protein Labeling Kit RED (L018, NanoTemper Technologies GmbH, Munich, Germany) according to the manufacturer’s instructions. The Monolith NT.115 system was used with Monolith NT.115 standard capillaries (M0-K022). MST assay buffer was used to dilute the labeled CMPK2 to 2 μM. […] The binding and dissociation constants (Kd) were evaluated and calculated using M0-Affinity analysis software version 2.1.3 (Nano Temper Technologies) for the ligand.
# [5] = target: CMPK2^Lys282 protein; experiment: MST binding to CMPK2 Lys282 mutant; set-up: species or system human; conditions: Lys282 mutated
# Experimental: as §1, §2
# [6] = target: T1, CMPK2^Lys265 protein (Homo sapiens, UniProt Q5EBM0, K265A); experiment: MST binding to CMPK2 Lys265 mutant; conditions: Lys265 mutated
# T1 construct: the N‐terminus was truncated by 22 amino acids; 6xHis (C); made in house; host or cells: FreeStyle 293-F cells (pTT5 vector)
# T1 sequence (Q5EBM0 22-449 K265A): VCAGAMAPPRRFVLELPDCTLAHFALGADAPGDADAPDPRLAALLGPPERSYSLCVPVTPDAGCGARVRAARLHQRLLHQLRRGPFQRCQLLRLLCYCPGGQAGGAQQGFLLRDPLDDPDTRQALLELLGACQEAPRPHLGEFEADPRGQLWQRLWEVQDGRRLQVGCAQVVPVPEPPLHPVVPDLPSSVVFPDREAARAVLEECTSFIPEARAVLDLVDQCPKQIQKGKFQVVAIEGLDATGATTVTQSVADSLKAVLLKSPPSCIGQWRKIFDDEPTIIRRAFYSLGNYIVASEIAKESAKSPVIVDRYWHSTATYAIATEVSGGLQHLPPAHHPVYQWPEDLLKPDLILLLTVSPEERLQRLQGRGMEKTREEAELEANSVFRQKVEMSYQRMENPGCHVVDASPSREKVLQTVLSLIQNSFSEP
# Experimental: as §1, §2
# [7] = tested on: BMDMs; experiment: CCK-8 cytotoxicity assay; format: cell-based, mouse; conditions: DP 5–80 μM
# Experimental: To detect the viability of cells, a cell counting kit 8 (CCK-8) assay was performed. BMDMs were seeded at 1×10^6 cells/ml in a 96-well plate and incubated overnight at 37℃. Then, we treated the cells with different concentrations of DP (0-160 μM) for 24 h, added CCK-8 reagent to the cell medium and incubated the cells for 1 h. Then, the optical density was measured at a wavelength of 450 nm.
smiles,measurement,setting,value
"COc1c2ccc(-c3ccccc3)oc-2cc(=O)c1C [compound 73, Dracohodin perochlorate]",mRNA expression level of Cmpk2,[1],decreased
same,protein expression of CMPK2,"[1]; DP 2.5, 5, 10 μM",dose‐dependently inhibited
same,effect on TNF-α in supernatant,[2]; CMPK2-overexpressing BMDMs,negligible
same,inhibitory effect on IL-1β,[2]; CMPK2-overexpressing BMDMs,reversed
same,release of TNF-α in supernatant,"[2]; WT/siCmpk2 BMDMs, DP 12 or 1 h, ATP/Nigericin",no significant change
same,ASC oligomerization,"[2]; siCmpk2-transduced BMDMs, different concentrations of DP",not significantly altered
same,cellular CMPK2 inhibition,[3]; DP 10 μM,enhanced significantly
same,cellular CMPK2 enzyme activity,[3]; DP 2.5 and 5 μM,tendency to inhibit
same,binding (Kd by MST),[4],no binding
same,binding (Kd by MST),[5],no binding
same,binding (Kd by MST),[6],no binding
same,cell viability,[7],no significant change
